Assay results reported in PubChem BioAssay AID330 (DTP/NCI, 2004).
Values joined by “and” are separate entries in the source; they are usually repeats but may differ in a detail not shown here. Equal entries are not always repeated. Inconclusive results and toxic doses are left out.

Tested on: P388 leukemia ip, CD2F1 mice, survival T/C
Test: NCI In Vivo Anticancer Drug Screen. Data for tumor model P388 Leukemia (intraperitoneal) in CD2F1 (CDF1) mice
Details: endpoint: median survival time, higher = longer survival
In short: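 Mice carrying the transplanted tumor received test compound or vehicle. Survival was recorded in each group, and the value is the treated-group measurement divided by that of the vehicle-treated control group.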

[1] = dose: 100.0 mg/kg/injection, schedule: Q04DX003 (ip), vehicle: saline with Tween-80
[2] = dose: 200.0 mg/kg/injection, schedule: Q04DX003 (ip), vehicle: saline with Tween-80
[3] = dose: 400.0 mg/kg/injection, schedule: Q04DX003 (ip), vehicle: saline with Tween-80
[4] = dose: 25.0 mg/kg/injection, schedule: Q04DX003 (ip), vehicle: saline with Tween-80
[5] = dose: 50.0 mg/kg/injection, schedule: Q01DX009 (ip), vehicle: saline with Tween-80
[6] = dose: 100.0 mg/kg/injection, schedule: Q01DX009 (ip), vehicle: saline with Tween-80
[7] = dose: 50.0 mg/kg/injection, schedule: Q01DX009 (ip), vehicle: saline
[8] = dose: 60.0 mg/kg/injection, schedule: Q01DX005 (ip), vehicle: Klucel (hydroxypropylcellulose) (HPC)
[9] = dose: 100.0 mg/kg/injection, schedule: Q01DX009 (ip), vehicle: saline
[10] = dose: 120.0 mg/kg/injection, schedule: Q01DX005 (ip), vehicle: Klucel (hydroxypropylcellulose) (HPC)
[11] = dose: 200.0 mg/kg/injection, schedule: Q01DX009 (ip), vehicle: saline
[12] = dose: 240.0 mg/kg/injection, schedule: Q01DX005 (ip), vehicle: Klucel (hydroxypropylcellulose) (HPC)
[13] = dose: 60.0 mg/kg/injection, schedule: Q01DX005 (ip), vehicle: saline with Tween-80
[14] = dose: 120.0 mg/kg/injection, schedule: Q01DX005 (ip), vehicle: saline with Tween-80
[15] = dose: 50.0 mg/kg/injection, schedule: Q01DX005 (ip), vehicle: Klucel (hydroxypropylcellulose) (HPC)
[16] = dose: 100.0 mg/kg/injection, schedule: Q01DX005 (ip), vehicle: Klucel (hydroxypropylcellulose) (HPC)
[17] = dose: 200.0 mg/kg/injection, schedule: Q01DX005 (ip), vehicle: Klucel (hydroxypropylcellulose) (HPC)
[18] = dose: 240.0 mg/kg/injection, schedule: Q01DX005 (ip), vehicle: saline with Tween-80
[19] = dose: 50.0 mg/kg/injection, schedule: Q04DX003 (ip), vehicle: saline with Tween-80
[20] = dose: 12.5 mg/kg/injection, schedule: Q01DX009 (ip), vehicle: saline with Tween-80

In the case of `CC(CCc1ccccc1)NC1=NCCO1` (configuration not stated), the T/C [1] is reported as 95 % of control, the T/C [2] is reported as 100 % of control and the T/C [3] is reported as 90 % of control.

For `Nc1ncnc2c1c(C(=O)O)cn2C1OC(CO)C(O)C1O` (configuration not stated), the T/C [4] was 120 % of control, the T/C [5] was 118 % of control and the T/C [6] was 86 % of control.

For `COc1cc2c(cc1OC)C1Cc3ccc(OC)c(OC)c3CN1CC2` (configuration not stated), the T/C [7] was 104 % of control, the T/C [8] was 100 % of control and the T/C [9] was 101 % of control. The T/C [10] was 109 % of control, the T/C [11] was 99 % of control and the T/C [12] was 108 % of control.

In the case of `C(=NC12CC3CC(CC(C3)C1)C2)C12CC3CC(CC(C3)C1)C2`, the T/C [5] is reported as 99 % of control, the T/C [6] is reported as 102 % of control and the T/C (dose: 200.0 mg/kg/injection, schedule: Q01DX009 (ip), vehicle: saline with Tween-80) is reported as 96 % of control.

With `CSc1nnc(CCC(=O)Nc2ccc(Cl)cc2Cl)o1` the T/C [13] was 106 % of control and the T/C [14] was 108 % of control.

`CC(C)C(N)C(=O)Nc1nncs1` (configuration not stated) was tested, and the T/C (dose: 100.0 mg/kg/injection, schedule: Q04DX002 (ip), vehicle: saline) was 106 % of control, the T/C (dose: 200.0 mg/kg/injection, schedule: Q04DX002 (ip), vehicle: saline) was 183 % of control and the T/C (dose: 400.0 mg/kg/injection, schedule: Q04DX002 (ip), vehicle: saline) was 157 % of control and 190 % of control. The T/C (dose: 600.0 mg/kg/injection, schedule: Q04DX002 (ip), vehicle: saline) was 171 % of control.

`c1ccc(OP2(Oc3ccccc3)=NP(Oc3ccccc3)(Oc3ccccc3)=NP(Oc3ccccc3)(Oc3ccccc3)=NP(Oc3ccccc3)(Oc3ccccc3)=N2)cc1` was tested, and the T/C [15] was 97 % of control and the T/C [16] was 91 % of control.

With `CC(C)CC(NC(=O)CCNC(=O)OCc1ccccc1)C(=O)O` (configuration not stated) the T/C [15] was 100 % of control, the T/C [16] was 101 % of control and the T/C [17] was 91 % of control.

With `COc1ccc2c(=O)c(Cc3ccccc3)coc2c1` the T/C [13] was 100 % of control, the T/C [14] was 97 % of control and the T/C [18] was 100 % of control.

With `Cc1ccc(S(=O)(=O)/N=S(/C)c2ccccc2)cc1` (configuration not stated) the T/C [1] was 110 % of control, the T/C [2] was 100 % of control and the T/C [3] was 120 % of control.

For `c1ccc2c(SCCNCCSc3c4ccccc4nc4ccccc34)c3ccccc3nc2c1`, the T/C [8] was 106 % of control, the T/C [10] was 105 % of control and the T/C [12] was 106 % of control.

In the case of `CN(C)N(P(c1ccccc1)c1ccccc1)P(c1ccccc1)c1ccccc1`, the T/C [1] is reported as 93 % of control, the T/C [2] is reported as 92 % of control and the T/C [3] is reported as 94 % of control.

`O=C(Cc1ccccc1)Nc1ncc([N+](=O)[O-])s1` was tested, and the T/C (dose: 50.0 mg/kg/injection, schedule: Q01DX009 (ip), vehicle: Klucel (hydroxypropylcellulose) (HPC)) was 116 % of control, the T/C (dose: 100.0 mg/kg/injection, schedule: Q01DX009 (ip), vehicle: Klucel (hydroxypropylcellulose) (HPC)) was 106 % of control and the T/C (dose: 200.0 mg/kg/injection, schedule: Q01DX009 (ip), vehicle: Klucel (hydroxypropylcellulose) (HPC)) was 100 % of control.

For `COc1ccc(C(c2cc3c(cc2O)OCO3)N2CCOCC2)cc1` (configuration not stated), the T/C [13] was 118 % of control, the T/C [14] was 109 % of control and 119 % of control and the T/C [18] was 120 % of control.

For `COc1ccc(C2=C(Cl)C(=O)N(c3ccccc3)C(=O)C2(Cl)Cl)cc1`, the T/C (dose: 100.0 mg/kg/injection, schedule: Q04DX002 (ip), vehicle: Klucel (hydroxypropylcellulose) (HPC)) was 103 % of control, the T/C (dose: 200.0 mg/kg/injection, schedule: Q04DX002 (ip), vehicle: Klucel (hydroxypropylcellulose) (HPC)) was 107 % of control and the T/C (dose: 400.0 mg/kg/injection, schedule: Q04DX002 (ip), vehicle: Klucel (hydroxypropylcellulose) (HPC)) was 107 % of control.

In the case of `COc1cccc(C2(O)CCCc3c(C)ccnc32)c1` (configuration not stated), the T/C [8] is reported as 103 % of control, the T/C [10] is reported as 112 % of control and the T/C [12] is reported as 115 % of control.

`C[S+](C)CCCNC(=O)c1csc(CCNC(=O)c2ccccc2)n1` was tested, and the T/C (dose: 12.5 mg/kg/injection, schedule: Q04DX003 (ip), vehicle: saline + alcohol) was 95 % of control, the T/C (dose: 25.0 mg/kg/injection, schedule: Q04DX003 (ip), vehicle: saline + alcohol) was 100 % of control and the T/C (dose: 50.0 mg/kg/injection, schedule: Q04DX003 (ip), vehicle: saline + alcohol) was 100 % of control.

In the case of `BrCCCCOCBr`, the T/C (dose: 60.0 mg/kg/injection, schedule: Q01DX005 (ip), vehicle: saline) is reported as 95 % of control, the T/C (dose: 120.0 mg/kg/injection, schedule: Q01DX005 (ip), vehicle: saline) is reported as 95 % of control and the T/C (dose: 240.0 mg/kg/injection, schedule: Q01DX005 (ip), vehicle: saline) is reported as 86 % of control.

`C=CCCCCCCCCC(=O)N(CCOC)CCOC` was tested, and the T/C [4] was 100 % of control, the T/C [19] was 100 % of control and the T/C [1] was 100 % of control.

With `COC(=O)C1C[S][Sn]2([NH]1)[NH]C(C(=O)OC)C[S]2` (configuration not stated) the T/C [15] was 108 % of control, the T/C [16] was 106 % of control and the T/C [17] was 101 % of control.

For `COC(=O)Nc1nc2ccc(C(=O)c3ccc(F)cc3)cc2[nH]1`, the T/C [20] was 120 % of control, the T/C [5] was 180 % of control and the T/C [6] was 217 % of control and 236 % of control.

In the case of `C=C1C(=O)OC2CC(C)C3(O)CCC(=O)C3(C)CC12` (configuration not stated), the T/C (dose: 25.0 mg/kg/injection, schedule: Q01DX005 (ip), vehicle: Klucel (hydroxypropylcellulose) (HPC)) is reported as 98 % of control, the T/C [15] is reported as 90 % of control and the T/C [16] is reported as 100 % of control. For the same molecule, the T/C [17] was 102 % of control.

In the case of `NNC(=O)CCn1[nH]c(=O)c(Cl)c(Cl)c1=O`, the T/C (dose: 50.0 mg/kg/injection, schedule: Q01DX005 (ip), vehicle: saline with Tween-80) is reported as 100 % of control, the T/C (dose: 100.0 mg/kg/injection, schedule: Q01DX005 (ip), vehicle: saline with Tween-80) is reported as 100 % of control and the T/C (dose: 200.0 mg/kg/injection, schedule: Q01DX005 (ip), vehicle: saline with Tween-80) is reported as 100 % of control.

For `NC1(N)ON(c2ccc(C=O)cc2)C(c2ccc([N+](=O)[O-])cc2)S1` (configuration not stated), the T/C [15] was 89 % of control, the T/C [16] was 95 % of control and the T/C [17] was 89 % of control.

For `Cc1n[nH]c(=O)c2cc3oc4ccccc4c3n12`, the T/C [13] was 100 % of control, the T/C [14] was 94 % of control and the T/C [18] was 92 % of control.

For `O=C(O)c1nccc2ccccc12`, the T/C [20] was 103 % of control, the T/C (dose: 25.0 mg/kg/injection, schedule: Q01DX009 (ip), vehicle: saline with Tween-80) was 103 % of control and the T/C [5] was 105 % of control. The T/C [6] was 106 % of control.

With `CCCC(C)C/C(C)=C/C(C)(C)C(CC(=O)N1CCOCC1)C(=O)O` (configuration not stated) the T/C [4] was 100 % of control, the T/C [19] was 100 % of control and the T/C [1] was 100 % of control.

For `NCC(OCCCC(=O)O)C(Cl)(Cl)Cl` (configuration not stated), the T/C [7] was 93 % of control, the T/C [9] was 101 % of control and the T/C [11] was 100 % of control.

In the case of `O=C(C1CO1)C(Cl)(Cl)Cl` (configuration not stated), the T/C (dose: 3.12 mg/kg/injection, schedule: Q01DX001 (ip), vehicle: saline) is reported as 107 % of control, the T/C (dose: 6.25 mg/kg/injection, schedule: Q01DX001 (ip), vehicle: saline) is reported as 107 % of control and the T/C (dose: 12.5 mg/kg/injection, schedule: Q01DX001 (ip), vehicle: saline) is reported as 116 % of control. The T/C (dose: 25.0 mg/kg/injection, schedule: Q01DX001 (ip), vehicle: saline) was 120 % of control and 122 % of control, the T/C (dose: 50.0 mg/kg/injection, schedule: Q01DX001 (ip), vehicle: saline) was 113 % of control and the T/C (dose: 100.0 mg/kg/injection, schedule: Q01DX001 (ip), vehicle: saline) was 111 % of control.

`O=P1(NNc2ncccn2)SC(NN=C2CCCCC2)=NC12CCCCC2` (configuration not stated) was tested, and the T/C (dose: 7.5 mg/kg/injection, schedule: Q01DX005 (ip), vehicle: Klucel (hydroxypropylcellulose) (HPC)) was 100 % of control, the T/C (dose: 15.0 mg/kg/injection, schedule: Q01DX005 (ip), vehicle: Klucel (hydroxypropylcellulose) (HPC)) was 95 % of control and the T/C (dose: 30.0 mg/kg/injection, schedule: Q01DX005 (ip), vehicle: Klucel (hydroxypropylcellulose) (HPC)) was 95 % of control. For the same molecule, the T/C [8] was 100 % of control.

`CCCCCCCCCC(C)CC(=O)NCCCN(C)CCCCN(C)C` (configuration not stated) was tested, and the T/C (dose: 0.78 mg/kg/injection, schedule: Q01DX009 (ip), vehicle: Klucel (hydroxypropylcellulose) (HPC)) was 107 % of control, the T/C (dose: 1.56 mg/kg/injection, schedule: Q01DX009 (ip), vehicle: Klucel (hydroxypropylcellulose) (HPC)) was 105 % of control and the T/C (dose: 3.13 mg/kg/injection, schedule: Q01DX009 (ip), vehicle: Klucel (hydroxypropylcellulose) (HPC)) was 112 % of control. The T/C (dose: 6.25 mg/kg/injection, schedule: Q01DX009 (ip), vehicle: Klucel (hydroxypropylcellulose) (HPC)) was 87 % of control.
